{"source": "paper PMC4823954", "about": "“From fighting depression to conquering tumors: a novel tricyclic thiazepine compound as a tubulin polymerization inhibitor” (Cell Death & Disease, 2016)", "test_in_all_cases": "KINOMEscan", "assay_type_in_all_cases": "binding", "settings_in_all_cases": "read-out: % Ctrl", "key": {"[1]": {"target": "T1, EPHA8 (Homo sapiens, UniProt P29322)", "T1 construct": "purchased DiscoveRx KINOMEscan", "T1 sequence (P29322 28-1005)": "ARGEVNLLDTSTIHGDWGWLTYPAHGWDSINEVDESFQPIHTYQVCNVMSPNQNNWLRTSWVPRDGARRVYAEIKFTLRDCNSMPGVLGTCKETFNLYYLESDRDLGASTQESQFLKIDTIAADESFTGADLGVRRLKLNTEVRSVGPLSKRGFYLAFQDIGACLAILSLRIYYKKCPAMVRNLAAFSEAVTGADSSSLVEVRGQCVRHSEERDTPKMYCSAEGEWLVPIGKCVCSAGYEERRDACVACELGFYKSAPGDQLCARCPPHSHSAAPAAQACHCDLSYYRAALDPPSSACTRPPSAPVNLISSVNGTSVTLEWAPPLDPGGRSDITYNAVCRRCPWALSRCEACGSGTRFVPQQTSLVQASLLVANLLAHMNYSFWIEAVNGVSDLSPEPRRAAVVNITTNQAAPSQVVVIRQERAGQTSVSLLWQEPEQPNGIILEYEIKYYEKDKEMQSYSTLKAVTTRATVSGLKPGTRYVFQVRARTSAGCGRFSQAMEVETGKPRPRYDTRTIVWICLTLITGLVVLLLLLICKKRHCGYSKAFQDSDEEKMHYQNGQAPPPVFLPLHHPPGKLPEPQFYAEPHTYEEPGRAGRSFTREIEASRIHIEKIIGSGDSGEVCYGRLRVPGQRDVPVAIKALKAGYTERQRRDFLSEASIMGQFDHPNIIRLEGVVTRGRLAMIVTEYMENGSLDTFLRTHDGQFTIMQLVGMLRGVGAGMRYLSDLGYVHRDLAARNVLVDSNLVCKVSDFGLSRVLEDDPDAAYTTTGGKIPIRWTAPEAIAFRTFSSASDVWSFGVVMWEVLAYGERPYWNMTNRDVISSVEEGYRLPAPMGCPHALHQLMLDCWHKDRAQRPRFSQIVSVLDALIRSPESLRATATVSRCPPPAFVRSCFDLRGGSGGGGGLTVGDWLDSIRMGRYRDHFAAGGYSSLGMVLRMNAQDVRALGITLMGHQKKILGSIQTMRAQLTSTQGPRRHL", "how_it_was_run": "(§1)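 Competition binding panel of 442 non-mutant kinases: test compound at 5 and 10 μM competed with an active-site-directed ligand for 1 h with shaking. Bound kinase was eluted with 0.5 μM ligand and quantified by qPCR; %Ctrl = (compound − positive control)/(DMSO − positive control) × 100, lower meaning tighter binding.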"}, "[2]": {"target": "T2, TNIK (Homo sapiens, UniProt Q9UKE5)", "T2 construct": "purchased DiscoveRx KINOMEscan", "how_it_was_run": "as §1"}, "[3]": {"target": "T3, MST2 (Homo sapiens, UniProt Q13188)", "T3 construct": "purchased DiscoveRx KINOMEscan", "how_it_was_run": "as §1"}, "[4]": {"target": "T4, CDC2L2 (Homo sapiens, UniProt Q9UQ88)", "T4 construct": "purchased DiscoveRx KINOMEscan", "how_it_was_run": "as §1"}, "[5]": {"target": "T5, CDC2L1 (Homo sapiens, UniProt P21127)", "T5 construct": "purchased DiscoveRx KINOMEscan", "how_it_was_run": "as §1"}, "[6]": {"target": "T6, PIK3CA(C420R) (Homo sapiens, UniProt P42336, C420R)", "T6 construct": "purchased DiscoveRx KINOMEscan"}, "[7]": {"target": "T7, CASK (Homo sapiens, UniProt O14936)", "T7 construct": "purchased DiscoveRx KINOMEscan", "how_it_was_run": "as §1"}, "[8]": {"target": "T8, KIT(D816H) (Homo sapiens, UniProt P10721, D816H)", "T8 construct": "purchased DiscoveRx KINOMEscan", "T8 sequence (P10721 26-976 D816H)": "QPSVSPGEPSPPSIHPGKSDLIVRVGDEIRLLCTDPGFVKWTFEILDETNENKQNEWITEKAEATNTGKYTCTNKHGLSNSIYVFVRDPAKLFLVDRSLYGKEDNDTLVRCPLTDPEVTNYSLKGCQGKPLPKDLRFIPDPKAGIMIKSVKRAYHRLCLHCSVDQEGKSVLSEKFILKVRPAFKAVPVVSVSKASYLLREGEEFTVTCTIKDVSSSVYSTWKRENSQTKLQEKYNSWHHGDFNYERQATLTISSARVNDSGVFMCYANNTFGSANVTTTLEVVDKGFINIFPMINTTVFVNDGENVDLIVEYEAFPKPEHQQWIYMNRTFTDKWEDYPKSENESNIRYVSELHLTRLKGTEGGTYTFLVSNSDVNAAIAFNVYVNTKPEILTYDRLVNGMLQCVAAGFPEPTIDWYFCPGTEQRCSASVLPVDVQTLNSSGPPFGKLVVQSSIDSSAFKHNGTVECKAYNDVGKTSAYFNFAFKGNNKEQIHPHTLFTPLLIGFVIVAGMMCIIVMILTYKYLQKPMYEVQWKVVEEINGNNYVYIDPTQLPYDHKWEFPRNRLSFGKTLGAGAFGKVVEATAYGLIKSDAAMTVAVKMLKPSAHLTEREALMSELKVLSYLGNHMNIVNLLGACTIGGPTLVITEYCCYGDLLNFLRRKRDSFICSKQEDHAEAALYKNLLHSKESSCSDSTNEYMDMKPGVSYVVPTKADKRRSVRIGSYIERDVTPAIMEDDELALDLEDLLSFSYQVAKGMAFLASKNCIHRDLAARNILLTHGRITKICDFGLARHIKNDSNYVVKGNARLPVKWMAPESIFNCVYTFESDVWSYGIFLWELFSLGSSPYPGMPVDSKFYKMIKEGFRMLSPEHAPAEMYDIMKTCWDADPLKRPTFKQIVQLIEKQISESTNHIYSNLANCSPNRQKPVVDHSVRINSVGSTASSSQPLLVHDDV"}, "[9]": {"target": "T9, IKK-beta (Homo sapiens, UniProt O14920)", "T9 construct": "purchased DiscoveRx KINOMEscan", "how_it_was_run": "as §1"}, "[10]": {"target": "T10, PKN1 (Homo sapiens, UniProt Q16512)", "T10 construct": "purchased DiscoveRx KINOMEscan", "how_it_was_run": "as §1"}, "[11]": {"target": "T11, PLK3 (Homo sapiens, UniProt Q9H4B4)", "T11 construct": "purchased DiscoveRx KINOMEscan", "how_it_was_run": "as §1"}, "[12]": {"target": "T12, CLK4 (Homo sapiens, UniProt Q9HAZ1)", "T12 construct": "purchased DiscoveRx KINOMEscan", "how_it_was_run": "as §1"}, "[13]": {"target": "T13, ITK (Homo sapiens, UniProt Q08881)", "T13 construct": "purchased DiscoveRx KINOMEscan", "how_it_was_run": "as §1"}, "[14]": {"target": "T14, YSK4 (Homo sapiens, UniProt Q56UN5)", "T14 construct": "purchased DiscoveRx KINOMEscan", "how_it_was_run": "as §1"}, "[15]": {"target": "T15, ACVRL1 (Homo sapiens, UniProt P37023)", "T15 construct": "purchased DiscoveRx KINOMEscan", "how_it_was_run": "as §1"}, "[16]": {"target": "T16, IKK-epsilon (Homo sapiens, UniProt Q14164)", "T16 construct": "purchased DiscoveRx KINOMEscan", "how_it_was_run": "as §1"}, "[17]": {"target": "T17, NEK1 (Homo sapiens, UniProt Q96PY6)", "T17 construct": "purchased DiscoveRx KINOMEscan", "how_it_was_run": "as §1"}, "[18]": {"target": "T18, MLK3 (Homo sapiens, UniProt Q16584)", "T18 construct": "purchased DiscoveRx KINOMEscan", "how_it_was_run": "as §1"}, "[19]": {"target": "T19, ERBB2 (Homo sapiens, UniProt P04626)", "T19 construct": "purchased DiscoveRx KINOMEscan", "how_it_was_run": "as §1"}, "[20]": {"target": "T20, CDK9 (Homo sapiens, UniProt P50750)", "T20 construct": "purchased DiscoveRx KINOMEscan", "how_it_was_run": "as §1"}, "[21]": {"target": "T21, MAP3K1 (Homo sapiens, UniProt Q13233)", "T21 construct": "purchased DiscoveRx KINOMEscan", "how_it_was_run": "as §1"}, "[22]": {"target": "T22, CAMK2B (Homo sapiens, UniProt Q13554)", "T22 construct": "purchased DiscoveRx KINOMEscan", "how_it_was_run": "as §1"}, "[23]": {"target": "T23, EGFR(S752-I759del) (Homo sapiens, UniProt P00533, DEL752-759)", "T23 construct": "purchased DiscoveRx KINOMEscan", "T23 sequence (P00533 with tags, fused parts or gaps DEL752-759 limits assumed)": "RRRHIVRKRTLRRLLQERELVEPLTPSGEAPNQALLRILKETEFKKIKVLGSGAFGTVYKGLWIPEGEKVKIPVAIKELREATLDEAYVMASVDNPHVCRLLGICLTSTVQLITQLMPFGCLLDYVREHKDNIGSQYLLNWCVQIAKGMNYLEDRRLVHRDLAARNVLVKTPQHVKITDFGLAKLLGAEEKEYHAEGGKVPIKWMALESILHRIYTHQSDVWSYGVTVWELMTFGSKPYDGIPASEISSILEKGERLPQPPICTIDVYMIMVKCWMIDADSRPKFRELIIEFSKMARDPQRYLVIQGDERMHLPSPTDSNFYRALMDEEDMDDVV"}, "[24]": {"target": "T24, BMX (Homo sapiens, UniProt P51813)", "T24 construct": "purchased DiscoveRx KINOMEscan", "how_it_was_run": "as §1"}, "[25]": {"target": "T25, PAK2 (Homo sapiens, UniProt Q13177)", "T25 construct": "purchased DiscoveRx KINOMEscan", "how_it_was_run": "as §1"}, "[26]": {"target": "T26, BRAF(V600E) (Homo sapiens, UniProt P15056, V600E)", "T26 construct": "purchased DiscoveRx KINOMEscan", "T26 sequence (P15056 whole entry V600E)": "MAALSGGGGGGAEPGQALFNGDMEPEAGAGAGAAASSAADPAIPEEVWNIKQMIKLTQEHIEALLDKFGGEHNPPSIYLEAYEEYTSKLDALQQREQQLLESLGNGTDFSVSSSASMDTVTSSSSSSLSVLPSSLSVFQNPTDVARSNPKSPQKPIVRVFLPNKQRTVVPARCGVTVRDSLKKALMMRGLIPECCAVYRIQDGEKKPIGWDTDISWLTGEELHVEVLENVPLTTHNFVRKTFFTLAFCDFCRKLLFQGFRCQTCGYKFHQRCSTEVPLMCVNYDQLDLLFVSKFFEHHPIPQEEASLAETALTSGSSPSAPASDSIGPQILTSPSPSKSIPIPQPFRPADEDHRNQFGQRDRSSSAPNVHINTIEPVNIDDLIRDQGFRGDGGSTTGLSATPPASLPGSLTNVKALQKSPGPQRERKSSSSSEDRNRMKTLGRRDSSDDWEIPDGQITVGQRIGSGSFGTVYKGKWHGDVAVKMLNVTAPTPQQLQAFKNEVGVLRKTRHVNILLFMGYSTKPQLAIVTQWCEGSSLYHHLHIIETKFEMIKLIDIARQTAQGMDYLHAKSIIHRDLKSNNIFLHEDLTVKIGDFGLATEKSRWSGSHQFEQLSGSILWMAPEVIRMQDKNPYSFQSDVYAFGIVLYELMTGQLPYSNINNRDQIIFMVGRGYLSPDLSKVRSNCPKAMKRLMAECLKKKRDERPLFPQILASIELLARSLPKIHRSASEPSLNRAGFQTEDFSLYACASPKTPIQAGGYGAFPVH"}, "[27]": {"target": "T27, SIK (Homo sapiens, UniProt P57059)", "T27 construct": "purchased DiscoveRx KINOMEscan", "T27 sequence (P57059 whole entry)": "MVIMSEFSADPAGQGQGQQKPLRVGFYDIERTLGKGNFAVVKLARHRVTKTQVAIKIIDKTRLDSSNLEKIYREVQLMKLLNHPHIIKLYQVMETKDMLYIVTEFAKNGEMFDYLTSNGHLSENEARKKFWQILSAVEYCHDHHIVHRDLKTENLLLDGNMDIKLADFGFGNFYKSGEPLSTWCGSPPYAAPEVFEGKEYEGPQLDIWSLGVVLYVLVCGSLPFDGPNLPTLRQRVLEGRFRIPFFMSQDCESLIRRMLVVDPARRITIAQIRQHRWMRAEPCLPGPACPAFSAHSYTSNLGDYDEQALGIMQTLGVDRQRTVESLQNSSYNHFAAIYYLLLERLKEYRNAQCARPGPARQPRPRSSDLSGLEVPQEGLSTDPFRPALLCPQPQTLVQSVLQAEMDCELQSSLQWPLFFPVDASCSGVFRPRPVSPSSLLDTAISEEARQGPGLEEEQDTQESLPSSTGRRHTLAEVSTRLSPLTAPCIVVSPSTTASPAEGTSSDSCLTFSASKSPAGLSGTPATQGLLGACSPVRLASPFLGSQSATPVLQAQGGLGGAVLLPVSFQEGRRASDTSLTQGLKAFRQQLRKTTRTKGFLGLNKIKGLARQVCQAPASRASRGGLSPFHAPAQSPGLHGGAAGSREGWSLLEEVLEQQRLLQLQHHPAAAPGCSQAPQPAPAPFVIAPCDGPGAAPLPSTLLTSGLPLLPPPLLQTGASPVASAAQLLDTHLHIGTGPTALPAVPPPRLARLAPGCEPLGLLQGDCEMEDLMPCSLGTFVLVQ", "how_it_was_run": "as §1"}, "[28]": {"target": "T28, AKT3 (Homo sapiens, UniProt Q9Y243)", "T28 construct": "purchased DiscoveRx KINOMEscan", "T28 sequence (Q9Y243 whole entry)": "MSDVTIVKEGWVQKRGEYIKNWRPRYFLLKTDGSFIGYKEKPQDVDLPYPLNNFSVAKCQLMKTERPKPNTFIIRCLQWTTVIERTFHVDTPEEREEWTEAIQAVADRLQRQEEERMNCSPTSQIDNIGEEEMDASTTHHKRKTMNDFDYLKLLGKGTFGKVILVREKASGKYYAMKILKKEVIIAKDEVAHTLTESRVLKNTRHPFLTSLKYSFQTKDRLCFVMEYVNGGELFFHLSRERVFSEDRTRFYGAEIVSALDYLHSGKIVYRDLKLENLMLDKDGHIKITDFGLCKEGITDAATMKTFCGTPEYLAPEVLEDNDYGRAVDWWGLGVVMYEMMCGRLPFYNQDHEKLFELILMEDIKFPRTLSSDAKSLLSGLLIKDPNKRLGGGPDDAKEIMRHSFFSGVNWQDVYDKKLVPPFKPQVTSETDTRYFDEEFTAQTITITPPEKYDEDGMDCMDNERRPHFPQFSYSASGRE", "how_it_was_run": "as §1"}, "[29]": {"target": "T29, TGFBR2 (Homo sapiens, UniProt P37173)", "T29 construct": "purchased DiscoveRx KINOMEscan", "how_it_was_run": "as §1"}, "[30]": {"target": "T30, ARK5 (Homo sapiens, UniProt O60285)", "T30 construct": "purchased DiscoveRx KINOMEscan", "T30 sequence (O60285 whole entry)": "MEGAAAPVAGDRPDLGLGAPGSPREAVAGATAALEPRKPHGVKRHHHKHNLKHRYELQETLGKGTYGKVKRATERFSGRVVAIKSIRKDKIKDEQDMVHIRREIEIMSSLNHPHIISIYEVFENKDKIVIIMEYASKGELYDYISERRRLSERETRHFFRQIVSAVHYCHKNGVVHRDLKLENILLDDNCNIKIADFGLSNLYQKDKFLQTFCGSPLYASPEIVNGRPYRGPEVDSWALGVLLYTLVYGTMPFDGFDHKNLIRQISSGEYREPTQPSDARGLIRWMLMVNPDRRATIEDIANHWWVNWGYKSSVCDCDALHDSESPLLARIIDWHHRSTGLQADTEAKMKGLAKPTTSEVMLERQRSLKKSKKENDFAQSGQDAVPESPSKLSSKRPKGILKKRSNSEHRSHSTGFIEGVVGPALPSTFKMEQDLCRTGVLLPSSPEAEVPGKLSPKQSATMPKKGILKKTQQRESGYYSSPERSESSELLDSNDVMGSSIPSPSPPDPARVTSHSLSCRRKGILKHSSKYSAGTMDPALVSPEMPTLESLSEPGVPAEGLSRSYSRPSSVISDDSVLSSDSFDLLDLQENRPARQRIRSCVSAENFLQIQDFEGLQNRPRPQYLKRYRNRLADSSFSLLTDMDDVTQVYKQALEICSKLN", "how_it_was_run": "as §1"}}, "data": [{"smiles": "Cc1ccc(C2=Nc3cccnc3S(=O)(=O)c3ccccc32)cc1", "note": "[TBPT, 6-(p-tolyl)benzo[f] pyrido[2,3-b][1,4] thiazepine 11,11-dioxide]", "values": [{"measurement": "remaining binding at 5 µM", "setting": "[1]; 5 μM", "value": 96, "unit": "%"}, {"measurement": "remaining binding at 10 µM", "setting": "[1]; 10 μM", "value": 93, "unit": "%"}, {"measurement": "remaining binding at 5 µM", "setting": "[2]; 5 μM", "value": 84, "unit": "%"}, {"measurement": "remaining binding at 10 µM", "setting": "[2]; 10 μM", "value": 97, "unit": "%"}, {"measurement": "remaining binding at 5 µM", "setting": "[3]; 5 μM", "value": 63, "unit": "%"}, {"measurement": "remaining binding at 10 µM", "setting": "[3]; 10 μM", "value": 100, "unit": "%"}, {"measurement": "remaining binding at 5 µM", "setting": "[4]; 5 μM", "value": 100, "unit": "%"}, {"measurement": "remaining binding at 10 µM", "setting": "[4]; 10 μM", "value": 100, "unit": "%"}, {"measurement": "remaining binding at 5 µM", "setting": "[5]; 5 μM", "value": 99, "unit": "%"}, {"measurement": "remaining binding at 10 µM", "setting": "[5]; 10 μM", "value": 100, "unit": "%"}, {"measurement": "remaining binding at 5 µM", "setting": "[6]; 5 μM", "value": 100, "unit": "%"}, {"measurement": "remaining binding at 10 µM", "setting": "[6]; 10 μM", "value": 100, "unit": "%"}, {"measurement": "remaining binding at 5 µM", "setting": "[7]; 5 μM", "value": 100, "unit": "%"}, {"measurement": "remaining binding at 10 µM", "setting": "[7]; 10 μM", "value": 100, "unit": "%"}, {"measurement": "remaining binding at 5 µM", "setting": "[8]; 5 μM", "value": 71, "unit": "%"}, {"measurement": "remaining binding at 10 µM", "setting": "[8]; 10 μM", "value": 100, "unit": "%"}, {"measurement": "remaining binding at 5 µM", "setting": "[9]; 5 μM", "value": 84, "unit": "%"}, {"measurement": "remaining binding at 10 µM", "setting": "[9]; 10 μM", "value": 98, "unit": "%"}, {"measurement": "remaining binding at 5 µM", "setting": "[10]; 5 μM", "value": 90, "unit": "%"}, {"measurement": "remaining binding at 10 µM", "setting": "[10]; 10 μM", "value": 100, "unit": "%"}, {"measurement": "remaining binding at 5 µM", "setting": "[11]; 5 μM", "value": 95, "unit": "%"}, {"measurement": "remaining binding at 10 µM", "setting": "[11]; 10 μM", "value": 75, "unit": "%"}, {"measurement": "remaining binding at 5 µM", "setting": "[12]; 5 μM", "value": 93, "unit": "%"}, {"measurement": "remaining binding at 10 µM", "setting": "[12]; 10 μM", "value": 96, "unit": "%"}, {"measurement": "remaining binding at 5 µM", "setting": "[13]; 5 μM", "value": 100, "unit": "%"}, {"measurement": "remaining binding at 10 µM", "setting": "[13]; 10 μM", "value": 90, "unit": "%"}, {"measurement": "remaining binding at 5 µM", "setting": "[14]; 5 μM", "value": 98, "unit": "%"}, {"measurement": "remaining binding at 10 µM", "setting": "[14]; 10 μM", "value": 98, "unit": "%"}, {"measurement": "remaining binding at 5 µM", "setting": "[15]; 5 μM", "value": 100, "unit": "%"}, {"measurement": "remaining binding at 10 µM", "setting": "[15]; 10 μM", "value": 71, "unit": "%"}, {"measurement": "remaining binding at 5 µM", "setting": "[16]; 5 μM", "value": 80, "unit": "%"}, {"measurement": "remaining binding at 10 µM", "setting": "[16]; 10 μM", "value": 100, "unit": "%"}, {"measurement": "remaining binding at 5 µM", "setting": "[17]; 5 μM", "value": 90, "unit": "%"}, {"measurement": "remaining binding at 10 µM", "setting": "[17]; 10 μM", "value": 100, "unit": "%"}, {"measurement": "remaining binding at 5 µM", "setting": "[18]; 5 μM", "value": 87, "unit": "%"}, {"measurement": "remaining binding at 10 µM", "setting": "[18]; 10 μM", "value": 100, "unit": "%"}, {"measurement": "remaining binding at 5 µM", "setting": "[19]; 5 μM", "value": 100, "unit": "%"}, {"measurement": "remaining binding at 10 µM", "setting": "[19]; 10 μM", "value": 100, "unit": "%"}, {"measurement": "remaining binding at 5 µM", "setting": "[20]; 5 μM", "value": 100, "unit": "%"}, {"measurement": "remaining binding at 10 µM", "setting": "[20]; 10 μM", "value": 100, "unit": "%"}, {"measurement": "remaining binding at 5 µM", "setting": "[21]; 5 μM", "value": 100, "unit": "%"}, {"measurement": "remaining binding at 10 µM", "setting": "[21]; 10 μM", "value": 100, "unit": "%"}, {"measurement": "remaining binding at 5 µM", "setting": "[22]; 5 μM", "value": 100, "unit": "%"}, {"measurement": "remaining binding at 10 µM", "setting": "[22]; 10 μM", "value": 100, "unit": "%"}, {"measurement": "remaining binding at 5 µM", "setting": "[23]; 5 μM", "value": 79, "unit": "%"}, {"measurement": "remaining binding at 10 µM", "setting": "[23]; 10 μM", "value": 100, "unit": "%"}, {"measurement": "remaining binding at 5 µM", "setting": "[24]; 5 μM", "value": 92, "unit": "%"}, {"measurement": "remaining binding at 10 µM", "setting": "[24]; 10 μM", "value": 93, "unit": "%"}, {"measurement": "remaining binding at 5 µM", "setting": "[25]; 5 μM", "value": 100, "unit": "%"}, {"measurement": "remaining binding at 10 µM", "setting": "[25]; 10 μM", "value": 100, "unit": "%"}, {"measurement": "remaining binding at 5 µM", "setting": "[26]; 5 μM", "value": 94, "unit": "%"}, {"measurement": "remaining binding at 10 µM", "setting": "[26]; 10 μM", "value": 94, "unit": "%"}, {"measurement": "remaining binding at 5 µM", "setting": "[27]; 5 μM", "value": 92, "unit": "%"}, {"measurement": "remaining binding at 10 µM", "setting": "[27]; 10 μM", "value": 92, "unit": "%"}, {"measurement": "remaining binding at 5 µM", "setting": "[28]; 5 μM", "value": 100, "unit": "%"}, {"measurement": "remaining binding at 10 µM", "setting": "[28]; 10 μM", "value": 100, "unit": "%"}, {"measurement": "remaining binding at 5 µM", "setting": "[29]; 5 μM", "value": 100, "unit": "%"}, {"measurement": "remaining binding at 10 µM", "setting": "[29]; 10 μM", "value": 81, "unit": "%"}, {"measurement": "remaining binding at 5 µM", "setting": "[30]; 5 μM", "value": 100, "unit": "%"}, {"measurement": "remaining binding at 10 µM", "setting": "[30]; 10 μM", "value": 100, "unit": "%"}]}]}
